# System: Bmi-1
# Experiment: Sandwich ELISA Assay (Bmi-1 ELISA) in HT-1080 cells
# Type: cell-based
# Procedure: Cell Seeding and Compound Treatment (Day 1):
# HT-1080 cells were seeded at 8000 cells/well (50 μL) in 96-well tissue culture plates. After the cells became adherent (3-4 hours), 2× diluted stocks of test compounds in 50 μL DMEM containing 1% DMSO (final DMSO concentration was 0.5%) were added and the plates were incubated at 37° C. under 5% CO2 for 40-48 hours.
# ELISA Plate First Antibody Preparation (Day 2):
# The First Antibody (Millipore Mouse, monoclonal to mouse Bmi-1, clone F6, catalog #05-637) diluted to 2 μg/mL in PBS was added (100 μL) to each well of a Nunc MaxiSorp 96-well ELISA plate. The plate was covered with a plate seal and allowed to stand overnight.
# Cell Lysate Preparation (Day 3):
# Fresh 1× Lysis buffer was prepared on the day of the assay as follows: 1 mM EDTA, 150 mM NaCl, 0.5% Triton-X 100, 10 mM NaF, 20 mM B-Glycerophosphate, 1 mM DTT (in PBS, pH 7.2-7.4) and 1× HALT protease inhibitor cocktail (Pierce #78410).
# The 1× Lysis Buffer (40 μL) was added to each well and the plate was shaken for 5-10 minutes on an orbital shaker to allow cell lysis, then diluent (1% BSA in PBS in 0.5% NP40) (100 μL) was added to each well.
# A standard curve was prepared at the following Bmi-1 concentrations: 8000, 4000, 2000, 1000, 500, 250, 125, 0 pg/mL The Bmi-1 Recombinant Protein Standard (Novus Biologicals PCGF4 Recombinant Protein (P01), catalog #H00000648-P01) used to prepare the standard curve was stored at −80° C. On first thaw, the Bmi-1 Recombinant Protein Standard was diluted to […] in Blocking Buffer (1% BSA in PBS; BSA: Fisher Scientific Catalog #1600-100). Aliquots were taken and refrozen at −80° C. The aliquots may be kept at 4° C. and reused after first thaw, but only within 1-2 weeks. The Bmi-1 Recombinant Protein Standard contains a GST-fusion tag that appears around 70 Kda on Western Blot.
# The prepared ELISA plate was washed 3× with Wash Buffer (0.05% Tween-20 in PBS). The final wash was removed from the plate and the plate was blotted dry. Blocking Buffer (300 μL) (1% BSA in PBS) was added to each well. The plate was covered with a plate seal and incubated at room temperature for 1 hour. The blocked plate was washed 3× with Wash Buffer, then the final wash was removed and the plate was blotted dry. The previously prepared samples and standards were added (100 μL/well) and the plate was covered with a plate seal and incubated at 4° C. overnight.
# The prepared ELISA plate was removed from 4° C., incubated at room temperature for 30 minutes, then washed and blotted dry as previously described for Day 3. The Second Antibody (Cell Signaling Rabbit anti-Bmi-1, Cat #2830) diluted to 1:600 in Blocking Buffer was added (100 μL) to each well, except as needed for background control wells. The plate was covered with a plate seal and incubated for 1.5 hrs at room temperature.
# The ELISA plate was washed and blotted dry as previously described. The Third Antibody (Cell Signaling HRP conjugated anti-rabbit IgG (CellSignaling, Cat #:7074) diluted to 1:300 in Blocking Buffer was added (100 μL) to each well, except as needed for background control wells. The plate was incubated for 1 hr at room temperature.
# The plate was washed and blotted dry as previously described, then prepared TMB substrate (TMB substrate kit, Pierce catalog #34021) (prepared by mixing kit reagents 1:1) (100 μL) was added per well. The plate was incubated for 20-30 minutes at room temperature in the dark, then Stop Solution (2 M sulfuric acid in water) (50 μL) was added per well. The plates were read at OD450 (experimental) and OD570 (reference).
row,Compound,EC50 [nM]
1,"FC(F)(F)c1ccc(Nc2ccnc(-c3c(C(F)(F)F)nc4cnccn34)n2)cc1 [Cpd 46, 2-[2-(trifluoromethyl)imidazo[1,2-a]pyrazin-3-yl]-N-[4-(trifluoromethyl)phenyl]pyrimidin-4-amine]",100 to 3000
2,"FC(F)(F)c1nc2cnccn2c1-c1nccc(Nc2ccc(Cl)cc2)n1 [Cpd 47, N-(4-chlorophenyl)-2-[2-(trifluoromethyl)imidazo[1,2-a]pyrazin-3-yl]pyrimidin-4-amine]",100 to 3000
3,"COc1ccc2nc(C(F)(F)F)c(-c3nccc(Nc4ccc(C(F)(F)F)cc4)n3)n2c1 [Cpd 48, 2-[6-methoxy-2-(trifluoromethyl)imidazo[1,2-a]pyridin-3-yl]-N-[4-(trifluoromethyl)phenyl]pyrimidin-4-amine]",100 to 3000
4,"COc1ccc2nc(C(F)(F)F)c(-c3nccc(Nc4ccc(OC(F)(F)F)cc4)n3)n2c1 [Cpd 49, 2-[6-methoxy-2-(trifluoromethyl)imidazo[1,2-a]pyridin-3-yl]-N-[4-(trifluoromethoxy)phenyl]pyrimidin-4-amine]",100 to 3000
5,"COc1ccc(Nc2ccnc(-c3c(C(F)(F)F)nc4ccc(OC)cn34)n2)cc1 [Cpd 50, N-(4-methoxyphenyl)-2-[6-methoxy-2-(trifluoromethyl)imidazo[1,2-a]pyridin-3-yl]pyrimidin-4-amine]",10 to 100
6,"COc1ccc2nc(C(F)(F)F)c(-c3nccc(Nc4ccc(OC(F)F)cc4)n3)n2c1 [Cpd 51, N-[4-(difluoromethoxy)phenyl]-2-[6-methoxy-2-(trifluoromethyl)imidazo[1,2-a]pyridin-3-yl]pyrimidin-4-amine]",100 to 3000
7,"Cc1nc2ccccc2n1-c1nc(NCCO)cc(Nc2ccc(OC(F)F)cc2)n1 [Cpd 52, 2-{[6-{[4-(difluoromethoxy)phenyl]amino}-2-(2-methyl-1H-benzimidazol-1-yl)pyrimidin-4-yl]amino}ethanol]",100 to 3000
8,"FC(F)Oc1ccc(Nc2ccnc(-c3c(C(F)(F)F)nc4cnccn34)n2)cc1 [Cpd 53, N-[4-(difluoromethoxy)phenyl]-2-[2-(trifluoromethyl)imidazo[1,2-a]pyrazin-3-yl]pyrimidin-4-amine]",100 to 3000
9,"Fc1ccc2nc(C(F)(F)F)c(-c3nccc(Nc4ccc(C(F)(F)F)cc4)n3)n2c1 [Cpd 54, 2-[6-fluoro-2-(trifluoromethyl)imidazo[1,2-a]pyridin-3-yl]-N-[4-(trifluoromethyl)phenyl]pyrimidin-4-amine]",100 to 3000
10,"Fc1ccc2nc(C(F)(F)F)c(-c3nccc(Nc4ccc(OC(F)F)cc4)n3)n2c1 [Cpd 55, N-[4-(difluoromethoxy)phenyl]-2-[6-fluoro-2-(trifluoromethyl)imidazo[1,2-a]pyridin-3-yl]pyrimidin-4-amine]",100 to 3000
11,"FC(F)(F)c1ccc(Nc2ccnc(-c3c(C(F)(F)F)nn4ccccc34)n2)cc1 [Cpd 56, N-[4-(trifluoromethyl)phenyl]-2-[2-(trifluoromethyl)pyrazolo[1,5-a]pyridin-3-yl]pyrimidin-4-amine]",100 to 3000
12,"Cc1nc2ccccc2n1-c1nc(NCCO)cc(Nc2ccc(C(F)(F)F)cc2)n1 [Cpd 57, 2-{[2-(2-methyl-1H-benzimidazol-1-yl)-6-{[4-(trifluoromethyl)phenyl]amino}pyrimidin-4-yl]amino}ethanol]",100 to 3000
13,"COCCNc1cc(Nc2ccc(C(F)(F)F)cc2)nc(-n2c(C)nc3ccccc32)n1 [Cpd 58, N^4-(2-methoxyethyl)-2-(2-methyl-1H-benzimidazol-1-yl)-N^6-[4-(trifluoromethyl)phenyl]pyrimidine-4,6-diamine]",100 to 3000
14,"COCCNc1cc(Nc2ccc(OC(F)F)cc2)nc(-n2c(C)nc3ccccc32)n1 [Cpd 59, N^4-[4-(difluoromethoxy)phenyl]-N^6-(2-methoxyethyl)-2-(2-methyl-1H-benzimidazol-1-yl)pyrimidine-4,6-diamine]",100 to 3000
15,"COc1ccc(Nc2ccnc(-c3c(C(F)(F)F)nn4ccccc34)n2)cc1 [Cpd 60, N-(4-methoxyphenyl)-2-[2-(trifluoromethyl)pyrazolo[1,5-a]pyridin-3-yl]pyrimidin-4-amine]",10 to 100
16,"Cc1nc2ccccc2n1-c1nccc(Nc2ccc(OC(F)F)cc2)n1 [Cpd 61, N-[4-(difluoromethoxy)phenyl]-2-(2-methyl-1H-benzimidazol-1-yl)pyrimidin-4-amine]",100 to 3000
17,"Cc1ccc(Nc2ccnc(-c3c(C(F)(F)F)nc4cnccn34)n2)cc1 [Cpd 62, N-(4-methylphenyl)-2-[2-(trifluoromethyl)imidazo[1,2-a]pyrazin-3-yl]pyrimidin-4-amine]",10 to 100
18,"Cc1nc2ccccc2n1-c1nc(N)cc(Nc2ccc(C(F)(F)F)cc2)n1 [Cpd 63, 2-(2-methyl-1H-benzimidazol-1-yl)-N-[4-(trifluoromethyl)phenyl]pyrimidine-4,6-diamine]",10 to 100
19,"Cc1nc2cc(F)c(F)cc2n1-c1nc(N)cc(Nc2ccc(C(F)(F)F)cc2)n1 [Cpd 64, 2-(5,6-difluoro-2-methyl-1H-benzimidazol-1-yl)-N-[4-(trifluoromethyl)phenyl]pyrimidine-4,6-diamine]",10 to 100
20,"Nc1cc(Nc2ccc(OC(F)F)cc2)nc(-c2c(C(F)(F)F)nc3ccccn23)n1 [Cpd 65, N-[4-(difluoromethoxy)phenyl]-2-[2-(trifluoromethyl)imidazo[1,2-a]pyridin-3-yl]pyrimidine-4,6-diamine]",10 to 100

# Other lines, results leading:
row,EC50 [nM],Compound
1,10 to 100,"Cc1nc2ccc(F)cn2c1-c1nc(N)cc(Nc2ccc(C(F)(F)F)cc2)n1 [Cpd 68, 2-(6-fluoro-2-methylimidazo[1,2-a]pyridin-3-yl)-N-[4-(trifluoromethyl)phenyl]pyrimidine-4,6-diamine]"
2,10 to 100,"Cc1nc2ccc(F)cc2n1-c1nc(N)cc(Nc2ccc(C(F)(F)F)cc2)n1 [Cpd 71, 2-(6-fluoro-2-methyl-1H-benzimidazol-1-yl)-N-[4-(trifluoromethyl)phenyl]pyrimidine-4,6-diamine]"
3,10 to 100,"Cc1nc2ncccc2n1-c1nc(N)cc(Nc2ccc(C(F)(F)F)cc2)n1 [Cpd 73, 2-(2-methyl-1H-imidazo[4,5-b]pyridin-1-yl)-N-[4-(trifluoromethyl)phenyl]pyrimidine-4,6-diamine]"
4,100 to 3000,"Cc1nc2cc(F)c(F)cc2n1-c1nc(N)cc(Nc2ccc(C(F)(F)F)c(F)c2)n1 [Cpd 74, 2-(5,6-difluoro-2-methyl-1H-benzimidazol-1-yl)-N-[3-fluoro-4-(trifluoromethyl)phenyl]pyrimidine-4,6-diamine]"
5,100 to 3000,"Cc1cc2nc(C)n(-c3nc(N)cc(Nc4ccc(C(F)(F)F)cc4)n3)c2cc1C [Cpd 79, N-[4-(trifluoromethyl)phenyl]-2-(2,5,6-trimethyl-1H-benzimidazol-1-yl)pyrimidine-4,6-diamine]"
6,10 to 100,"Cc1nc2ccccc2n1-c1nc(N)cc(Nc2ccc(C(F)(F)F)c(F)c2)n1 [Cpd 80, N-[3-fluoro-4-(trifluoromethyl)phenyl]-2-(2-methyl-1H-benzimidazol-1-yl)pyrimidine-4,6-diamine]"
7,10 to 100,"Nc1cc(Nc2ccc(C(F)(F)F)cc2)nc(-n2c(C3CC3)nc3ccc(F)cc32)n1 [Cpd 82, 2-(2-cyclopropyl-6-fluoro-1H-benzimidazol-1-yl)-N-[4-(trifluoromethyl)phenyl]pyrimidine-4,6-diamine]"
8,10 to 100,"Nc1cc(Nc2ccc(C(F)(F)F)cc2)nc(-n2c(C3CC3)nc3cc(F)ccc32)n1 [Cpd 83, 2-(2-cyclopropyl-5-fluoro-1H-benzimidazol-1-yl)-N-[4-(trifluoromethyl)phenyl]pyrimidine-4,6-diamine]"
9,100 to 3000,"Nc1cc(Nc2ccc(C(F)(F)F)cc2)nc(-c2c(CO)nc3ccc(F)cn23)n1 [Cpd 84, [3-(4-amino-6-{[4-(trifluoromethyl)phenyl]amino}pyrimidin-2-yl)-6-fluoroimidazo[1,2-a]pyridin-2-yl]methanol]"

# From patent US11180483B2, “Substituted reverse pyrimidine Bmi-1 inhibitors” (PTC Therapeutics, Inc., priority 2012, dated 2021)
